Assay results: patent publication US20040122076A1, “Sulphonamides for the treatment of central nervous system diseases” (priority 2000, published 2004)

Target: T1, human recombinant 5-HT6 receptors (Homo sapiens, UniProt P50406)
T1 construct: purchased Receptor Biology, Inc., Beltsville Md; 20705, USA RB-HS6; host or cells: HEK293 cells (membranes)
Experiment: Binding to human recombinant 5-HT6 receptors ([3H]-LSD displacement, HEK293 membranes)
Conditions: [3H]-LSD 1 nM, membranes of HEK293 cells, 1 hour at 37° C.; Ki=IC50/(1+L/KD)
Experimental: 1. Binding to Human Recombinant 5-HT6 Receptors
The binding of the compounds according to the invention to human recombinant 5-HT6 receptors can be determined as follows. Membranes of HEK293 cells which express human recombinant 5-HT6 receptors (RB-HS6, Receptor Biology, Inc., Beltsville Md. 20705, USA) were suspended in the ratio 1:40 in ice-cold sample buffer consisting of 50 mM tris HCl, 5 mM MgCl2, 0.5 mM EDTA; 0.1% ascorbic acid and 10 μM pargyline (pH 7.4) and homogenized (Polytron). 100 μl of membrane suspension, 50 μl of [^3H]-LSD (specific activity 75 Ci/mmol, final concentration […]) and 50 μl of test substance solution (8 different concentrations, 10^−5 to 10^−9 M) were incubated for 1 hour at 37° C. and the [^3H]-LSD bound to the receptor was then separated from the free [^3H]-LSD by filtration. The radioactivity retained by the filter was determined by scintillation spectroscopy. All tests were carried out in triplicate determinations. The IC50 values were calculated using the program GraphPadPrism (Hill equation, special: one-site competition). The inhibition constant of the test substance Ki was determined from the IC50 value of the compounds (concentration of the test substance at which 50% of the ligand bound to the receptor is displaced), the dissociation constant KD and the concentration L of [^3H]-LSD (Ki=IC50/(1+L/KD)).

T1 sequence (P50406 whole entry): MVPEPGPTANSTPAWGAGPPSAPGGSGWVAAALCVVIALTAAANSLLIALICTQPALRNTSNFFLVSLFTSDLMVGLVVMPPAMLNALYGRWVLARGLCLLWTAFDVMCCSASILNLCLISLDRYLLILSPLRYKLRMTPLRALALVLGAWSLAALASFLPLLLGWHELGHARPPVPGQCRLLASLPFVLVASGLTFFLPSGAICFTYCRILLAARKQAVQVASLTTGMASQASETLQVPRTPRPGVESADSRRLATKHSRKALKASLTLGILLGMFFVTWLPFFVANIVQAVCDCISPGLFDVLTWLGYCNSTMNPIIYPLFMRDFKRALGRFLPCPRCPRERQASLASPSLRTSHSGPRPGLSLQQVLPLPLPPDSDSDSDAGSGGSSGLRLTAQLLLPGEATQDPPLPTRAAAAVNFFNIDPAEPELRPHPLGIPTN

**Q.** With `CCn1ccc2ccc(S(=O)(=O)Nc3cccc(NC(=O)C(C)(C)C)c3)cc21` [Example 44] as the molecule, how does the Ki read?
**A.** 12 nM
